According to BindingDB's records for doi:10.1016/j.bmcl.2016.02.067 (Pfizer, 2016):

What was measured:
[1] = Inhibition of EGFR Del ex19/T790M double mutant in human PC9 cells assessed as suppression of cell proliferation
[2] = Inhibition of wild type EGFR in human NCI-H1666 cells assessed as suppression of cell proliferation
[3] = Inhibition of EGFR L858R/T790M double mutant in human NCI-H1975 cells assessed as suppression of cell proliferation
[4] = Inhibition of EGFR Del ex19 mutant in human HCC827 cells assessed as suppression of cell proliferation
[5] = Inhibition of EGFR Del ex19 mutant in human PC9 cells assessed as suppression of cell proliferation

IC50 [1]: 8 nM
IC50 [2]: 230 nM
IC50 [3]: 8 nM
IC50 [4]: 8 nM
IC50 [5]: 8 nM
Compound: C=CC(=O)N1CC[C@@H](Oc2nc(Nc3ccc(N4CCC(N5CCN(C)CC5)CC4)cc3)c(C(N)=O)nc2CC)C1 [US9085540, 54]
